# From patent publication US20220125763A1, “COMPOSITIONS PROVIDING ENHANCED ANTIBACTERIAL ACTIVITY AGAINST GRAM-POSITIVE BACTERIA AND USE THEREOF” (ANIFERA LIMITED, priority 2019, published 2022)
# Legend:
# Test in all cases: Minimum inhibitory concentration of antibiotic with or without imidazole compound
# Format in all cases: cell-based
# [1] = test system: Staphylococcus aureus B8; conditions: S. aureus B8
# Method: (§1) Exemplary embodiments of a 2-(substituted-amino)-imidazole compound in combination with an antibiotic compound were tested to evaluate the effect on minimum inhibitory concentration (MIC).
# (§2) In these experiments, a frozen stock of the bacterial strain was streaked onto a sterile brain heart infusion agar plate and incubated at 37° C. for 16-20 hours. After the incubation period, three to five well-isolated bacterial colonies of the same morphologic type were taken from the brain heart infusion agar plate culture and used to inoculate, using a sterile loop, a tube containing 4 mL to 5 mL of cation adjusted Mueller Hinton (MHII) broth. The culture was allowed to grow in a shaking incubator at 220 rpm at 37° C. until the culture reached logarithmic phase, as determined by the measuring of and achieving an optical density (OD) of 0.3 to 0.5 measured at 600 nm. The bacterial concentration of the culture was then adjusted with the addition of MHII broth to achieve the equivalent of 1×10^6 colony-forming unit (CFU)/mL using the approximation that 1×10^9 CFU/mL is equal to OD600 nm=1. Cells were then treated with the designated amount of test compound (shown in Table 1) or a solvent control (dimethyl sulfoxide) for 30 minutes at ambient conditions. Cells were then transferred into 96-well round bottom plates and exposed to 2-fold serial dilutions of the denoted antibiotic.
# [2] = test system: Staphylococcus aureus Xen30; conditions: S. aureus Xen30
# Method: as §1, §2
# [3] = test system: Staphylococcus aureus B12; conditions: S. aureus B12
# Method: as §1, §2
# [4] = test system: Coagulase-negative staphylococci CN8
# Method: as §1, §2
# [5] = test system: Coagulase-negative staphylococci CN58
# Method: as §1, §2
# [6] = test system: Coagulase-negative staphylococci CN74
# Method: as §1, §2
compound,measurement,setting,value
"CC(C)Nc1ncc(-c2cccc(NC(=O)Nc3ccc(Cl)c(Cl)c3)c2)[nH]1 [Compound 1, 1-(3,4-dichlorophenyl)-3-(3-(2-(Isopropylamino)-1H-Imidazol-5-yl)phenyl)urea]",Minimum Inhibitory Concentration of penicillin,[1]; +Compound 1 at 2 μM,2 µg/mL
same,Minimum Inhibitory Concentration of penicillin,[2]; +Compound 1 at 4 μM,8 µg/mL
same,Minimum Inhibitory Concentration of penicillin,[3]; +Compound 1 at 2 μM,1 µg/mL
same,Minimum Inhibitory Concentration of penicillin,[4]; +Compound 1 at 2 μM,0.125 µg/mL
same,Minimum Inhibitory Concentration of penicillin,[5]; +Compound 1 at 2 μM,0.125 µg/mL
same,Minimum Inhibitory Concentration of penicillin,[6]; +Compound 1 at 2 μM,0.5 µg/mL
Cc1onc(-c2ccccc2)c1C(=O)N[C@@H]1C(=O)N2[C@@H]1SC(C)(C)[C@@H]2C(=O)O [Oxacillin],MIC,"[2]; Staphylococcus aureus, No imidazole compound, read-out: Minimum Inhibitory Concentration of Oxacillin",128 µg/mL
penicillin,Minimum Inhibitory Concentration of penicillin,[1]; No imidazole compound,64 µg/mL
same,Minimum Inhibitory Concentration of penicillin,[2]; No imidazole compound,128 µg/mL
same,Minimum Inhibitory Concentration of penicillin,[3]; No imidazole compound,16 µg/mL
same,Minimum Inhibitory Concentration of penicillin,[4]; No imidazole compound,2 µg/mL
same,Minimum Inhibitory Concentration of penicillin,[5]; No imidazole compound,32 µg/mL
same,Minimum Inhibitory Concentration of penicillin,[6]; No imidazole compound,8 µg/mL
